According to patent EP0532097A1, “Piperazinyl(sulfon)amide derivatives of camphor as oxytocin antagonists” (MERCK & CO. INC., priority 1991, dated 1993):

Target: T1, uterine OT receptors (Rattus norvegicus, UniProt P70536)
T1 construct: using a crude membrane preparation of uteri; from tissue; host or cells: uterus of DES-treated rats, crude membrane preparation
T1 sequence (P70536 1-388): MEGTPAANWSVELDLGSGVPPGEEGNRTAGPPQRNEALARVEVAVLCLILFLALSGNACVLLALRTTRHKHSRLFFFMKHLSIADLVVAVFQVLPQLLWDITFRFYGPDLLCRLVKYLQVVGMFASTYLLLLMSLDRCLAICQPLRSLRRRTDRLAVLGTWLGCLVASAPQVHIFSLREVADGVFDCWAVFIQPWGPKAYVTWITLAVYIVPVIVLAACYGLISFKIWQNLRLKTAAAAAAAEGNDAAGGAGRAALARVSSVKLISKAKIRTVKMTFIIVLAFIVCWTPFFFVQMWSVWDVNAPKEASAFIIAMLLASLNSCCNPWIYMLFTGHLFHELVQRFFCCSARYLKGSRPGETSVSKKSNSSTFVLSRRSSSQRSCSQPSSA
Experiment: [³H]Oxytocin radioligand binding assay, crude membrane preparation of uteri from DES-treated rats
Conditions: not given

Compound | IC50
Cc1ccccc1N1CCN(S(=O)(=O)C[C@]23CC[C@H](C[C@@H]2NC(=O)[C@H](CCS(C)(=O)=O)NC(=O)Cc2c[nH]cn2)C3(C)C)CC1 [Example 37, 1-((7,7-Dimethyl-2-endo-(2s-(imidazol-4-ylacetyl-amino)-4-(methyl-sulfonyl)butyramido)-bicyclo(2.2.1)-heptan-1-yl)methanesulfonyl)-4-(2-methylphenyl)-piperazine] | 1.2 nM

Same assay, conditions: competition with 1 nM [³H]OT, 60 minutes, 22°C; concentration that inhibits 50% of OT; read-out: IC50

Compound | IC50
COC(=O)[C@H]1C[C@H]2CC[C@]1(CS(=O)(=O)N1CCN(c3ccccc3C)CC1)C2(C)C [Example 23, 1-((7,7-Dimethyl-2-endo-methoxycarbonyl-bicyclo-(2.2.1)heptan-1-yl)methanesulfonyl)-4-(2-methyl-phenyl)piperazine] | 120 nM
Cc1ccccc1N1CCN(S(=O)(=O)C[C@]23CC[C@H](C[C@@H]2C(=O)O)C3(C)C)CC1 [Example 24, 1-((7,7-Dimethyl-2-endo-carboxy-bicyclo(2.2.1)heptan-1-yl)methane-sulfonyl)-4-(2-methylphenyl)piperazine] | 260 nM
Cc1ccccc1N1CCN(S(=O)(=O)CC23CCC(CC2=NO)C3(C)C)CC1 (centres unmarked) [Example 33, 1-((7,7-Dimethyl-2-oximino-bicyclo(2.2.1)heptan-1-yl)methanesulfonyl)-4-(2-methylphenyl)-piperazine] | 460 nM
Cc1ccccc1N1CCN(S(=O)(=O)C[C@]23CC[C@H](C[C@@H]2NC(=O)[C@@H](N)CCS(C)(=O)=O)C3(C)C)CC1 [Example 36, 1-((7,7-Dimethyl-2-endo-(2S-amino-4-(methylsulfonyl)-butyramido)-bicyclo(2.2.1)heptan-1-yl)methanesulfonyl)-4-(2-methylphenyl)piperazine] | 7.7 nM
Cc1ccccc1N1CCN(S(=O)(=O)C[C@]23CC[C@H](C[C@@H]2NC(=O)[C@H](CCS(C)(=O)=O)N(C)C)C3(C)C)CC1 [Example 38, 1-((7,7-Dimethyl-2-endo-(2s-(dimethylamino)-4-(methylsulfonyl)butyramido)-bicyclo(2.2.1)heptan-1-yl)methanesulfonyl)-4-(2-methyl-phenyl)piperazine] | 5.4 nM
Cc1ccccc1N1CCN(S(=O)(=O)C[C@]23CC[C@H](C[C@@H]2N(C)C(=O)[C@@H](N)CCS(C)(=O)=O)C3(C)C)CC1 [Example 41, 1-((7,7-dimethyl-2-endo-methyl(2S-amino-4-(methylsulfonyl)butanoyl)amino-bicyclo(2.2.1)heptan-1-yl)methanesulfonyl)-4-(2-methylphenyl)-piperazine] | 6.3 nM
Cc1ccccc1N1CCN(S(=O)(=O)C[C@]23CC[C@H](C[C@@H]2N(C)C(=O)[C@H](CCS(C)(=O)=O)N(C)C)C3(C)C)CC1 [Example 42, 1-((7,7-Dimethyl-2-endo-methyl(2s-dimethylamino-4-(methylsulfonyl)-butanoyl)amino-bicyclo(2.2.1)heptan-1-yl)methanesulfonyl)-4-(2-methylphenyl)-piperazine] | 9.2 nM
Cc1ccccc1N1CCN(S(=O)(=O)C[C@]23CC[C@H](C[C@@H]2NC(=O)Cc2c[nH]cn2)C3(C)C)CC1 [Example 43] | 110 nM
Cc1ccccc1N1CCN(S(=O)(=O)C[C@]23CC[C@H](C[C@@H]2NC(=O)C(C)c2c[nH]cn2)C3(C)C)CC1 (stereo partly drawn) [Example 44, 1-((7,7-Dimethyl-2-endo-(2-(4-imidazolyl)propanoyl)-amino-bicyclo-(2.2.1)heptan-1-yl)methanesulfonyl)-4-(2-methylphenyl)piperazine] | 26 nM
Two isomers of 1-((7,7-dimethyl-2-exo-hydroxy-2-endo-2-(1-(3-methoxycarbonyl)-2-pyrrolidinon-1-yl)propylbicyclo-(2.2.1)heptan-1-yl)methanesulfonyl)-4-(2-methylphenyl)piperazine [Example 26] | 35 nM

Same assay, conditions: read-out: inhibition at 100 nM

Compound | inhibition at 0.1 µM
Cc1ccccc1N1CCN(S(=O)(=O)C[C@]23CC[C@H](C[C@@H]2C(=O)NCCc2cnc[nH]2)C3(C)C)CC1 [Example 25, 1-((7,7-Dimethyl-2-endo-(4-imidazolyl)ethylamino-carbonyl-bicyclo-(2.2.1)heptan-1-yl)methanesulfonyl)-4-(2-methylphenyl)piperazine] | 34%
CCOC(=O)C(CC=C1CC2CCC1(CS(=O)(=O)N1CCN(c3ccccc3C)CC1)C2(C)C)(NC(C)=O)C(=O)OCC (centres unmarked) [Example 28, 1-((7,7-Dimethyl-2-(3-acetamido-3,3'-di(ethoxycarbonyl))propylidine-bicyclo(2.2.1)heptan-1-yl)methanesulfonyl)-4-(2-methylphenyl)piperazine] | 35%
Cc1ccccc1N1CCN(S(=O)(=O)C[C@]23CC[C@H](C[C@@H]2NC(=O)[C@H](CCS(C)(=O)=O)NC(=O)OC(C)(C)C)C3(C)C)CC1 [Example 35, 1-((7,7-Dimethyl-2-endo-(2S-(tert-butyloxycarbonyl-amino)-4-(methyl-sulfonyl)-butyramido)-bicyclo(2.2.1)-heptan-1-yl)methanesulfonyl)-4-(2-methylphenyl)-piperazine] | 91%
CCOC(=O)CN1CCCC(C(=O)NCC(C)C2(O)CC3CCC2(CS(=O)(=O)N2CCN(c4ccccc4C)CC2)C3(C)C)C1 (stereo not drawn) [Example 50, 1-((7,7-Dimethyl-2-exo-hydroxy-2-endo-2-(1-(3-(1-ethoxycarbonyl-methyl)piperidinylcar-bonyl)amino)propyl-bicyclo(2.2.1)heptan-1-yl)methanesulfonyl)-4-(2-methylphenyl)piperazine] | 66%
CCOC(=O)CN1CCCC1C(=O)NCC(C)C1(O)CC2CCC1(CS(=O)(=O)N1CCN(c3ccccc3C)CC1)C2(C)C (stereo not drawn) [Example 52, 1-((7,7-Dimethyl-2-exo-hydroxy-2-endo-2-(1-(l-n-(ethoxycarboxymethyl)-prolyl)amino)propyl-bicyclo-(2.2.1)heptan-1-yl)methanesulfonyl)-4-(2-methylphenyl)piperazine] | 66%
CCOC(=O)CN1CCC(C(=O)NCC(C)C2(O)CC3CCC2(CS(=O)(=O)N2CCN(c4ccccc4C)CC2)C3(C)C)CC1 (stereo not drawn) [Example 57, 1-((7,7-Dimethyl-2-exo-hydroxy-2-endo-2-(1-(3-(1-ethoxycarbonyl-methyl)piperidinylcar-bonyl)amino)propyl-bicyclo(2.2.1)heptan-1-yl)methanesulfonyl)-4-(2-methylphenyl)piperazine] | 66%

Same assay, conditions: read-out: inhibition at 1,000 nM

Compound | inhibition at 1 µM
Cc1ccccc1N1CCN(S(=O)(=O)C[C@]23CC[C@H](C[C@H]2O)C3(C)C)C(C)C1 (stereo partly drawn) [Example 32, 1-((7,7-Dimethyl-2-exo-hydroxy-bicyclo(2.2.1)heptan-1-yl)methane-sulfonyl)-4-(2-methylphenyl)-2-methyl-piperazine] | 37%
Cc1ccccc1N1CCN(S(=O)(=O)C[C@]23CC[C@H](C[C@@H]2NC(=O)OCc2ccccc2)C3(C)C)CC1 [Example 39, 1-((7,7-Dimethyl-2-endo-benzyloxycarbonylamino-bicyclo(2.2.1)heptan-1-yl)methanesulfonyl)-4-(2-methyl-phenyl)piperazine] | 54%
Cc1ccccc1N1CCN(S(=O)(=O)C[C@]23CC[C@H](C[C@@H]2N(C)C(=O)OCc2ccccc2)C3(C)C)CC1 [Example 40, 1-((7,7-Dimethyl-2-endo-methyl(benzyloxy-carbonyl)amino-bicyclo(2.2.1)-heptan-1-yl)methanesulfonyl)4-(2-methylphenyl)piperazine] | 35%

Same assay, conditions: read-out: inhibition at 10,000 nM

Compound | inhibition at 10 µM
Cc1ccccc1N1CCN(S(=O)(=O)CC23CCC(CC2=O)C3(C)C)CC1=O (centres unmarked) [Example 30, 1-((7,7-Dimethyl-2-oxo-bicyclo(2.2.1)heptan-1-yl)methanesulfonyl)-4-(2-methylphenyl)-3-piperazinone] | 16%
Cc1ccccc1N1CCN(S(=O)(=O)CC23CCC(CC2=O)C3(C)C)C(C)C1=O (centres unmarked) [Example 31, 1-((7,7-Dimethyl-2-oxo-bicyclo(2.2.1)heptan-1-yl)methanesulfonyl)-4-(2-methylphenyl)-2-methyl-3-piperazinone] | 5%

Same assay, conditions: saturation binding assay; uterus

Compound | Kd
[³H]OT [reference compound] | 0.7 nM
